Test system: 354836-022-R-J1-PDC multicell spheroid viability
Experiment: Anticancer human tumor 354836-022-R-J1-PDC patient-derived head and neck squamous cell carcinoma cell line growth inhibition [PI3K]
Details: curve of first compound; second compound 0.00316 µM
Outline: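 We assembled tumor spheroids that included a stromal compartment of HUVEC and MSCs, then exposed them to targeted agents alone and together with PI3K pathway inhibitors. Concentration series descended by half-log from clinically achievable Cmax levels. Viability served as the endpoint.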
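Note: spheroids exposed to agents for seven days before the viability read.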

IC50	Structure (SMILES)
> 10000 nM	C#Cc1c(F)ccc2cc(O)cc(-c3ncc4c(N5CC6CCC(C5)N6)nc(OCC56CCCN5CC(F)C6)nc4c3F)c12 (configuration not stated) + COc1c(OCCCN2CCOCC2)ccc2c3n(c(=NC(=O)c4cnc(N)nc4)nc12)CCN3
> 10000 nM	CC(Cn1ccc(-c2ccc(C#N)c(Cl)c2)n1)NC(=O)c1cc(C(C)O)[nH]n1 (configuration not stated) + CC(Nc1ccc2c(c1)OCCn1cc(N3C(=O)OCC3C(F)F)nc1-2)C(N)=O

Same assay, conditions: curve of first compound; second compound 0.01 µM

IC50	Structure (SMILES)
> 10000 nM	C#Cc1c(F)ccc2cc(O)cc(-c3ncc4c(N5CC6CCC(C5)N6)nc(OCC56CCCN5CC(F)C6)nc4c3F)c12 (configuration not stated) + COc1c(OCCCN2CCOCC2)ccc2c3n(c(=NC(=O)c4cnc(N)nc4)nc12)CCN3
> 10000 nM	CC(Cn1ccc(-c2ccc(C#N)c(Cl)c2)n1)NC(=O)c1cc(C(C)O)[nH]n1 (configuration not stated) + CC(Nc1ccc2c(c1)OCCn1cc(N3C(=O)OCC3C(F)F)nc1-2)C(N)=O

Same assay, conditions: curve of first compound; second compound 0.0316 µM

IC50	Structure (SMILES)
> 10000 nM	C#Cc1c(F)ccc2cc(O)cc(-c3ncc4c(N5CC6CCC(C5)N6)nc(OCC56CCCN5CC(F)C6)nc4c3F)c12 (configuration not stated) + COc1c(OCCCN2CCOCC2)ccc2c3n(c(=NC(=O)c4cnc(N)nc4)nc12)CCN3
> 10000 nM	CC(Cn1ccc(-c2ccc(C#N)c(Cl)c2)n1)NC(=O)c1cc(C(C)O)[nH]n1 (configuration not stated) + CC(Nc1ccc2c(c1)OCCn1cc(N3C(=O)OCC3C(F)F)nc1-2)C(N)=O
> 10000 nM	CNC(=O)c1ccc(N2C(=S)N(c3ccc(C#N)c(C(F)(F)F)c3)C(=O)C2(C)C)cc1F + Cc1nc(NC(=O)N2CCCC2C(N)=O)sc1-c1ccnc(C(C)(C)C(F)(F)F)c1
100 nM	Cn1ncc(Cl)c1-c1cc(C(=O)NC(CN)Cc2cccc(F)c2)sc1Cl (configuration not stated) + CC(Nc1ncnc2nc[nH]c12)c1cc2cccc(Cl)c2c(=O)n1-c1ccccc1

Same assay, conditions: curve of first compound; second compound 0.1 µM

IC50	Structure (SMILES)
516 nM	C#Cc1c(F)ccc2cc(O)cc(-c3ncc4c(N5CC6CCC(C5)N6)nc(OCC56CCCN5CC(F)C6)nc4c3F)c12 (configuration not stated) + COc1c(OCCCN2CCOCC2)ccc2c3n(c(=NC(=O)c4cnc(N)nc4)nc12)CCN3
> 10000 nM	CC(Cn1ccc(-c2ccc(C#N)c(Cl)c2)n1)NC(=O)c1cc(C(C)O)[nH]n1 (configuration not stated) + CC(Nc1ccc2c(c1)OCCn1cc(N3C(=O)OCC3C(F)F)nc1-2)C(N)=O
> 10000 nM	CNC(=O)c1ccc(N2C(=S)N(c3ccc(C#N)c(C(F)(F)F)c3)C(=O)C2(C)C)cc1F + Cc1nc(NC(=O)N2CCCC2C(N)=O)sc1-c1ccnc(C(C)(C)C(F)(F)F)c1
168 nM	Cn1ncc(Cl)c1-c1cc(C(=O)NC(CN)Cc2cccc(F)c2)sc1Cl (configuration not stated) + CC(Nc1ncnc2nc[nH]c12)c1cc2cccc(Cl)c2c(=O)n1-c1ccccc1

Same assay, conditions: curve of first compound; second compound 0.316 µM

IC50	Structure (SMILES)
< 31.6 nM	C#Cc1c(F)ccc2cc(O)cc(-c3ncc4c(N5CC6CCC(C5)N6)nc(OCC56CCCN5CC(F)C6)nc4c3F)c12 (configuration not stated) + COc1c(OCCCN2CCOCC2)ccc2c3n(c(=NC(=O)c4cnc(N)nc4)nc12)CCN3
> 10000 nM	CC(Cn1ccc(-c2ccc(C#N)c(Cl)c2)n1)NC(=O)c1cc(C(C)O)[nH]n1 (configuration not stated) + CC(Nc1ccc2c(c1)OCCn1cc(N3C(=O)OCC3C(F)F)nc1-2)C(N)=O
> 10000 nM	CNC(=O)c1ccc(N2C(=S)N(c3ccc(C#N)c(C(F)(F)F)c3)C(=O)C2(C)C)cc1F + Cc1nc(NC(=O)N2CCCC2C(N)=O)sc1-c1ccnc(C(C)(C)C(F)(F)F)c1
112 nM	Cn1ncc(Cl)c1-c1cc(C(=O)NC(CN)Cc2cccc(F)c2)sc1Cl (configuration not stated) + CC(Nc1ncnc2nc[nH]c12)c1cc2cccc(Cl)c2c(=O)n1-c1ccccc1

Same assay, conditions: curve of first compound; second compound 1 µM

IC50	Structure (SMILES)
< 31.6 nM	C#Cc1c(F)ccc2cc(O)cc(-c3ncc4c(N5CC6CCC(C5)N6)nc(OCC56CCCN5CC(F)C6)nc4c3F)c12 (configuration not stated) + COc1c(OCCCN2CCOCC2)ccc2c3n(c(=NC(=O)c4cnc(N)nc4)nc12)CCN3
8450 nM	CC(Cn1ccc(-c2ccc(C#N)c(Cl)c2)n1)NC(=O)c1cc(C(C)O)[nH]n1 (configuration not stated) + CC(Nc1ccc2c(c1)OCCn1cc(N3C(=O)OCC3C(F)F)nc1-2)C(N)=O
> 10000 nM	CNC(=O)c1ccc(N2C(=S)N(c3ccc(C#N)c(C(F)(F)F)c3)C(=O)C2(C)C)cc1F + Cc1nc(NC(=O)N2CCCC2C(N)=O)sc1-c1ccnc(C(C)(C)C(F)(F)F)c1
162 nM	Cn1ncc(Cl)c1-c1cc(C(=O)NC(CN)Cc2cccc(F)c2)sc1Cl (configuration not stated) + CC(Nc1ncnc2nc[nH]c12)c1cc2cccc(Cl)c2c(=O)n1-c1ccccc1

Same assay, conditions: curve of first compound; second compound 3.16 µM

IC50	Structure (SMILES)
> 10000 nM	CNC(=O)c1ccc(N2C(=S)N(c3ccc(C#N)c(C(F)(F)F)c3)C(=O)C2(C)C)cc1F + Cc1nc(NC(=O)N2CCCC2C(N)=O)sc1-c1ccnc(C(C)(C)C(F)(F)F)c1
215 nM	Cn1ncc(Cl)c1-c1cc(C(=O)NC(CN)Cc2cccc(F)c2)sc1Cl (configuration not stated) + CC(Nc1ncnc2nc[nH]c12)c1cc2cccc(Cl)c2c(=O)n1-c1ccccc1

Same assay, conditions: curve of first compound; second compound 10 µM

IC50	Structure (SMILES)
< 31.6 nM	CNC(=O)c1ccc(N2C(=S)N(c3ccc(C#N)c(C(F)(F)F)c3)C(=O)C2(C)C)cc1F + Cc1nc(NC(=O)N2CCCC2C(N)=O)sc1-c1ccnc(C(C)(C)C(F)(F)F)c1
145 nM	Cn1ncc(Cl)c1-c1cc(C(=O)NC(CN)Cc2cccc(F)c2)sc1Cl (configuration not stated) + CC(Nc1ncnc2nc[nH]c12)c1cc2cccc(Cl)c2c(=O)n1-c1ccccc1

Same assay, conditions: second compound 0.00316 µM; first compound 0.0316 µM; stronger effect = lower value

Structure (SMILES)	viability, T/C
C#Cc1c(F)ccc2cc(O)cc(-c3ncc4c(N5CC6CCC(C5)N6)nc(OCC56CCCN5CC(F)C6)nc4c3F)c12 (configuration not stated) + COc1c(OCCCN2CCOCC2)ccc2c3n(c(=NC(=O)c4cnc(N)nc4)nc12)CCN3	113%
CC(Cn1ccc(-c2ccc(C#N)c(Cl)c2)n1)NC(=O)c1cc(C(C)O)[nH]n1 (configuration not stated) + CC(Nc1ccc2c(c1)OCCn1cc(N3C(=O)OCC3C(F)F)nc1-2)C(N)=O	99.4%

Same assay, conditions: second compound 0.00316 µM; first compound 0.1 µM; stronger effect = lower value

Structure (SMILES)	viability, T/C
C#Cc1c(F)ccc2cc(O)cc(-c3ncc4c(N5CC6CCC(C5)N6)nc(OCC56CCCN5CC(F)C6)nc4c3F)c12 (configuration not stated) + COc1c(OCCCN2CCOCC2)ccc2c3n(c(=NC(=O)c4cnc(N)nc4)nc12)CCN3	102%
CC(Cn1ccc(-c2ccc(C#N)c(Cl)c2)n1)NC(=O)c1cc(C(C)O)[nH]n1 (configuration not stated) + CC(Nc1ccc2c(c1)OCCn1cc(N3C(=O)OCC3C(F)F)nc1-2)C(N)=O	88.8%

Same assay, conditions: second compound 0.00316 µM; first compound 0.316 µM; stronger effect = lower value

Structure (SMILES)	viability, T/C
C#Cc1c(F)ccc2cc(O)cc(-c3ncc4c(N5CC6CCC(C5)N6)nc(OCC56CCCN5CC(F)C6)nc4c3F)c12 (configuration not stated) + COc1c(OCCCN2CCOCC2)ccc2c3n(c(=NC(=O)c4cnc(N)nc4)nc12)CCN3	107%
CC(Cn1ccc(-c2ccc(C#N)c(Cl)c2)n1)NC(=O)c1cc(C(C)O)[nH]n1 (configuration not stated) + CC(Nc1ccc2c(c1)OCCn1cc(N3C(=O)OCC3C(F)F)nc1-2)C(N)=O	96.7%

Same assay, conditions: second compound 0.00316 µM; first compound 1 µM; stronger effect = lower value

Structure (SMILES)	viability, T/C
C#Cc1c(F)ccc2cc(O)cc(-c3ncc4c(N5CC6CCC(C5)N6)nc(OCC56CCCN5CC(F)C6)nc4c3F)c12 (configuration not stated) + COc1c(OCCCN2CCOCC2)ccc2c3n(c(=NC(=O)c4cnc(N)nc4)nc12)CCN3	108%
CC(Cn1ccc(-c2ccc(C#N)c(Cl)c2)n1)NC(=O)c1cc(C(C)O)[nH]n1 (configuration not stated) + CC(Nc1ccc2c(c1)OCCn1cc(N3C(=O)OCC3C(F)F)nc1-2)C(N)=O	86.8%

Same assay, conditions: second compound 0.00316 µM; first compound 3.16 µM; stronger effect = lower value

Structure (SMILES)	viability, T/C
C#Cc1c(F)ccc2cc(O)cc(-c3ncc4c(N5CC6CCC(C5)N6)nc(OCC56CCCN5CC(F)C6)nc4c3F)c12 (configuration not stated) + COc1c(OCCCN2CCOCC2)ccc2c3n(c(=NC(=O)c4cnc(N)nc4)nc12)CCN3	111%
CC(Cn1ccc(-c2ccc(C#N)c(Cl)c2)n1)NC(=O)c1cc(C(C)O)[nH]n1 (configuration not stated) + CC(Nc1ccc2c(c1)OCCn1cc(N3C(=O)OCC3C(F)F)nc1-2)C(N)=O	94.3%

Same assay, conditions: second compound 0.00316 µM; first compound 10 µM; stronger effect = lower value

Structure (SMILES)	viability, T/C
C#Cc1c(F)ccc2cc(O)cc(-c3ncc4c(N5CC6CCC(C5)N6)nc(OCC56CCCN5CC(F)C6)nc4c3F)c12 (configuration not stated) + COc1c(OCCCN2CCOCC2)ccc2c3n(c(=NC(=O)c4cnc(N)nc4)nc12)CCN3	92.8%
CC(Cn1ccc(-c2ccc(C#N)c(Cl)c2)n1)NC(=O)c1cc(C(C)O)[nH]n1 (configuration not stated) + CC(Nc1ccc2c(c1)OCCn1cc(N3C(=O)OCC3C(F)F)nc1-2)C(N)=O	73.8%

Same assay, conditions: second compound 0.01 µM; first compound 0.0316 µM; stronger effect = lower value

Structure (SMILES)	viability, T/C
C#Cc1c(F)ccc2cc(O)cc(-c3ncc4c(N5CC6CCC(C5)N6)nc(OCC56CCCN5CC(F)C6)nc4c3F)c12 (configuration not stated) + COc1c(OCCCN2CCOCC2)ccc2c3n(c(=NC(=O)c4cnc(N)nc4)nc12)CCN3	98%
CC(Cn1ccc(-c2ccc(C#N)c(Cl)c2)n1)NC(=O)c1cc(C(C)O)[nH]n1 (configuration not stated) + CC(Nc1ccc2c(c1)OCCn1cc(N3C(=O)OCC3C(F)F)nc1-2)C(N)=O	95.9%

Same assay, conditions: second compound 0.01 µM; first compound 0.1 µM; stronger effect = lower value

Structure (SMILES)	viability, T/C
C#Cc1c(F)ccc2cc(O)cc(-c3ncc4c(N5CC6CCC(C5)N6)nc(OCC56CCCN5CC(F)C6)nc4c3F)c12 (configuration not stated) + COc1c(OCCCN2CCOCC2)ccc2c3n(c(=NC(=O)c4cnc(N)nc4)nc12)CCN3	99%
CC(Cn1ccc(-c2ccc(C#N)c(Cl)c2)n1)NC(=O)c1cc(C(C)O)[nH]n1 (configuration not stated) + CC(Nc1ccc2c(c1)OCCn1cc(N3C(=O)OCC3C(F)F)nc1-2)C(N)=O	103%

Same assay, conditions: second compound 0.01 µM; first compound 0.316 µM; stronger effect = lower value

Structure (SMILES)	viability, T/C
C#Cc1c(F)ccc2cc(O)cc(-c3ncc4c(N5CC6CCC(C5)N6)nc(OCC56CCCN5CC(F)C6)nc4c3F)c12 (configuration not stated) + COc1c(OCCCN2CCOCC2)ccc2c3n(c(=NC(=O)c4cnc(N)nc4)nc12)CCN3	96.3%
CC(Cn1ccc(-c2ccc(C#N)c(Cl)c2)n1)NC(=O)c1cc(C(C)O)[nH]n1 (configuration not stated) + CC(Nc1ccc2c(c1)OCCn1cc(N3C(=O)OCC3C(F)F)nc1-2)C(N)=O	99.6%
